pIC50: −log10 of the molar value. Bounds are passed on as bounds.

In the first test the target is T1, cytoplasmic domain of the human VEGF receptor (VEGFR-2) (Homo sapiens, UniProt P35968).
T1 construct: The cytoplasmic domain of the human VEGF receptor (VEGFR-2) was expressed as a Histidine-tagged fusion protein; Histidine tag
T1 sequence (P35968 786-1356): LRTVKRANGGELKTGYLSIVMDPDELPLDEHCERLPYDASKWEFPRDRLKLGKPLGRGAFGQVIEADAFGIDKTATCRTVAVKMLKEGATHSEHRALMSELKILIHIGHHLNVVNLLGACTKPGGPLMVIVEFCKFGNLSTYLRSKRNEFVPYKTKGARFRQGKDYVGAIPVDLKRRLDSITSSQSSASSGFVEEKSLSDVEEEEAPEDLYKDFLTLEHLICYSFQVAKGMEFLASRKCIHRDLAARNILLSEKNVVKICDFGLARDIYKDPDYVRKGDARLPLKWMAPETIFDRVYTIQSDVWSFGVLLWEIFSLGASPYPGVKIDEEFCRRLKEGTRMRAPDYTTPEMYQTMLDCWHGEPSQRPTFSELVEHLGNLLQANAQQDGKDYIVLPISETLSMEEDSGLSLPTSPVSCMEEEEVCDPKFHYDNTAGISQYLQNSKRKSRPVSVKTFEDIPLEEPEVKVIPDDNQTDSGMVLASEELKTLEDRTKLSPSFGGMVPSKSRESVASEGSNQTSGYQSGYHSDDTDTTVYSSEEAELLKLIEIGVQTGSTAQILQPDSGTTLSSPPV
The test can be described thus: KDR Assay. Format: biochemical. The conditions noted are these: His-VEGFR-2; 3.6 μM ATP. As to the method: The cytoplasmic domain of the human VEGF receptor (VEGFR-2) was expressed as a Histidine-tagged fusion protein following infection of insect cells using an engineered baculovirus. His-VEGFR-2 was purified to homogeneity, as determined by SDS-PAGE, using nickel resin chromatography. Kinase assays were performed in 96 well microtiter plates that were coated overnight with 30 μg of poly-Glu-Tyr (4:1) in 10 mM Phosphate Buffered Saline (PBS), pH 7.2-7.4. The plates were incubated with 1% BSA and then washed four times with PBS prior to starting the reaction. Reactions were carried out in 120 μL reaction volumes containing 3.6 μM ATP in kinase buffer (50 mM Hepes buffer pH 7.4, 20 mM MgCl2, 0.1 mM MnCl2 and 0.2 mM Na3VO4). Test compounds were reconstituted in 100% DMSO and added to the reaction to give a final DMSO concentration of 5%. Reactions were initiated by the addition 0.5 ng of purified protein. Following a ten minute incubation at 25° C., the reactions were washed four times with PBS containing 0.05% Tween-20. 100 μl of a monoclonal anti-phosphotyrosine antibody-peroxidase conjugate was diluted 1:10000 in PBS-Tween-20 and added to the wells for 30 minutes. Following four washes with PBS-Tween-20, 100 μl of O-phenylenediamine Dihydrochloride in Phosphate-citrate buffer, containing urea hydrogen peroxide, was added to the wells for 7 minutes as a colorimetric substrate for the peroxidase. The reaction was terminated by the addition of 100 μl of 2.5N H2SO4 to each well and read using a microplate ELISA reader set at 492 nm. IC50 values for compound inhibition were calculated directly from graphs of optical density (arbitrary units) versus compound concentration following subtraction of blank values.
Take `O=C1Nc2ccc(F)cc2C1=CNc1ccc(CCN2CCCCC2)cc1` [Example 288, 5-Fluoro-3-{[4-(2-piperidin-1-yl-ethyl)-phenylamino]-methylene}-1,3-dihydro-indol-2-one]: the negative-log IC50 (pIC50) was 6.48.

`O=C1Nc2ccccc2C1=CNc1ccc2[nH]ccc2c1` [Example 31, 3-[(5-Indolylamino)-methylene]-1,3-dihydro-indol-2-one] showed a negative logarithm of the IC50 (pIC50) of 6.24.

`O=C1Nc2ccccc2C1=CNc1ccc(CN2CCCCC2)cc1` [Example 251, 3-[(4-Piperidin-1-ylmethyl-phenylamino)-methylene]-1,3-dihydro-indol-2-one]: the pIC50 was 6.85.

Molecule `Cc1cccc2c1C(=CNc1ccc(CCN3CCOCC3)cc1)C(=O)N2` [Example 308, 4-Methyl-3-{[4-(2-morpholin-4-yl-ethyl)-phenylamino]-methylene}-1,3-dihydro-indol-2-one] showed a pIC50 of 6.92.

`Cc1cccc2c1C(=CNc1ccc(CCN3CCCCC3)cc1)C(=O)N2` [Example 286, 4-Methyl-3-{[4-(2-piperidin-1-yl-ethyl)-phenylamino]-methylene}-1,3-dihydro-indol-2-one] gave a negative logarithm of the IC50 (pIC50) of 7.40.

`CN1CCCC(COc2ccc(NC=C3C(=O)Nc4ccc(F)cc43)cc2)C1` (stereo not drawn) [Example 282, 5-Fluoro-3-{[4-(1-methyl-piperidin-3-ylmethoxy)-phenylamino]-methylene}-1,3-dihydro-indol-2-one] had a pIC50 of 6.48.

As to `O=C1Nc2ccc(F)cc2C1=CNc1ccc(OCCN2CCCCC2)cc1` [Example 263, 5-Fluoro-3-{[4-(2-piperidin-1-yl-ethoxy)-phenylamino]-methylene}-1,3-dihydro-indol-2-one], the negative-log IC50 (pIC50) was 6.44.

`CN1CCCC(COc2ccc(NC=C3C(=O)Nc4cc(F)ccc43)cc2)C1` (stereo not drawn) [Example 279, 6-Fluoro-3-{[4-(1-methyl-piperidin-3-ylmethoxy)-phenylamino]-methylene}-1,3-dihydro-indol-2-one] showed a pIC50 of 6.80.

As for `O=C1Nc2ccccc2C1=CNc1ccc(CCN2CCOCC2)cc1` [Example 306, 3-{[4-(2-Morpholin-4-yl-ethyl)-phenylamino]-methylene}-1,3-dihydro-indol-2-one], the negative-log IC50 (pIC50) is 6.21.

On to `O=C1Nc2ccc(F)cc2C1=CNc1ccc(CCN2CCOCC2)cc1` [Example 310, 5-Fluoro-3-{[4-(2-morpholin-4-yl-ethyl)-phenylamino]-methylene}-1,3-dihydro-indol-2-one], for which the pIC50 was 6.64.

With `CCN(CC)CCOc1ccc(NC=C2C(=O)Nc3cccc(C)c32)cc1` [Example 264, 3-{[4-(2-Diethylamino-ethoxy)-phenylamino]-methylene}-4-methyl-1,3-dihydro-indol-2-one], the pIC50 was 7.15.

As for `O=C1Nc2cc(F)ccc2C1=CNc1ccc(OCCN2CCCCC2)cc1` [Example 253, 6-Fluoro-3-{[4-(2-piperidin-1-yl-ethoxy)-phenylamino]-methylene}-1,3-dihydro-indol-2-one], the pIC50 was 6.77.

`CN1CCCC(COc2ccc(NC=C3C(=O)Nc4ccccc43)cc2)C1` (stereo not drawn) [Example 280, 3-{[4-(1-Methyl-piperidin-3-ylmethoxy)-phenylamino]-methylene}-1,3-dihydro-indol-2-one] had a pIC50 of 6.34.

`O=C1Nc2ccccc2C1=CNc1ccc(CCN2CCCCC2)cc1` [Example 284, 3-{[4-(2-Piperidin-1-yl-ethyl)-phenylamino]-methylene}-1,3-dihydro-indol-2-one] had a pIC50 of 6.60.

For the molecule `O=C1Nc2cc(F)ccc2C1=CNc1ccc(NCCCN2CCOCC2)cc1` [Example 298, 6-Fluoro-3-{[4-(3-morpholin-4-yl-propylamino)-phenylamino]-methylene}-1,3-dihydro-indol-2-one], the pIC50 is 6.47.

`O=C1Nc2ccc(F)cc2C1=CNc1ccc(OCCN2CCCC2)cc1` [Example 274, 5-Fluoro-3-{[4-(2-pyrrolidin-1-yl-ethoxy)-phenylamino]-methylene}-1,3-dihydro-indol-2-one] had a negative-log IC50 (pIC50) of 6.68.

For `O=C1Nc2ccc(F)cc2C1=CNc1ccc(NCCCN2CCOCC2)cc1` [Example 300, 5-Fluoro-3-{[4-(3-morpholin-4-yl-propylamino)-phenylamino]-methylene}-1,3-dihydro-indol-2-one], the pIC50 was 6.38.

Regarding `O=C1Nc2ccc(Cl)cc2C1=CNc1ccc(NCCCN2CCOCC2)cc1` [Example 299, 5-Chloro-3-{[4-(3-morpholin-4-yl-propylamino)-phenylamino]-methylene}-1,3-dihydro-indol-2-one], the pIC50 was 6.85.

With `Cc1cccc2c1C(=CNc1ccc(OCC3CCCN(C)C3)cc1)C(=O)N2` (stereo not drawn) [Example 278, 4-Methyl-3-{[4-(1-methyl-piperidin-3-ylmethoxy)-phenylamino]-methylene}-1,3-dihydro-indol-2-one], the pIC50 is 7.10.

`Cc1cccc2c1C(=CNc1ccc(NCCCN3CCOCC3)cc1)C(=O)N2` [Example 296, 4-Methyl-3-{[4-(3-morpholin-4-yl-propylamino)-phenylamino]-methylene}-1,3-dihydro-indol-2-one] had a pIC50 of 6.85.

Consider `O=C1Nc2ccc(F)cc2C1=CNc1ccc(CN2CCOCC2)cc1` [Example 294, 5-Fluoro-3-[(4-morpholin-4-ylmethyl-phenylamino)-methylene]-1,3-dihydro-indol-2-one], for which the negative logarithm of the IC50 (pIC50) was 6.42.

`Cc1cccc2c1C(=CNc1ccc(OCCN3CCCCC3)cc1)C(=O)N2` [Example 252, 4-Methyl-3-{[4-(2-piperidin-1-yl-ethoxy)-phenylamino]-methylene}-1,3-dihydro-indol-2-one] had a pIC50 of 6.82.

Take `O=C1Nc2ccccc2C1=CNc1ccc(CN2CCOCC2)cc1` [Example 290, 3-[(4-Morpholin-4-ylmethyl-phenylamino)-methylene]-1,3-dihydro-indol-2-one]: the pIC50 was 6.24.

Molecule `O=C1Nc2cc(F)ccc2C1=CNc1ccc(CN2CCOCC2)cc1` [Example 295, 6-Fluoro-3-[(4-morpholin-4-ylmethyl-phenylamino)-methylene]-1,3-dihydro-indol-2-one] showed a negative logarithm of the IC50 (pIC50) of 6.74.

Turning to `Cc1cccc2c1C(=CNc1ccc(OCCN3CCCC3)cc1)C(=O)N2` [Example 270, 4-Methyl-3-{[4-(2-pyrrolidin-1-yl-ethoxy)-phenylamino]-methylene}-1,3-dihydro-indol-2-one], the pIC50 was 6.96.

As to `Cc1cccc2c1C(=CNc1ccc(CN3CCOCC3)cc1)C(=O)N2` [Example 292, 4-Methyl-3-[(4-morpholin-4-ylmethyl-phenylamino)-methylene]-1,3-dihydro-indol-2-one], the pIC50 is 7.05.

As to `O=C1Nc2cc(F)ccc2C1=CNc1ccc(CN2CCCCC2)cc1` [Example 259, 6-Fluoro-3-[(4-piperidin-1-ylmethyl-phenylamino)-methylene]-1,3-dihydro-indol-2-one], the negative logarithm of the IC50 (pIC50) was 6.52.

`O=C1Nc2cc(F)ccc2C1=CNc1ccc(CCN2CCOCC2)cc1` [Example 311, 6-Fluoro-3-{[4-(2-morpholin-4-yl-ethyl)-phenylamino]-methylene}-1,3-dihydro-indol-2-one]: the negative-log IC50 (pIC50) was 7.00.

With `O=C1Nc2ccccc2C1=CNc1ccc(NCCCN2CCOCC2)cc1` [Example 297, 3-{[4-(3-Morpholin-4-yl-propylamino)-phenylamino]-methylene}-1,3-dihydro-indol-2-one], the pIC50 was 6.41.

With `Cc1cccc2c1C(=CNc1ccc(OCCCCN3CCCCC3)cc1)C(=O)N2` [Example 246, 4-Methyl-3-{[4-(4-piperidin-1-yl-butoxy)-phenylamino]-methylene}-1,3-dihydro-indol-2-one], the pIC50 is 7.05.

As to `O=C1Nc2ccccc2C1=CNc1ccc(OCCN2CCCCC2)cc1` [Example 254, 3-{[4-(2-Piperidin-1-yl-ethoxy)-phenylamino]-methylene}-1,3-dihydro-indol-2-one], the pIC50 is 6.30.

`O=C1Nc2ccccc2C1=CNc1ccc(OCCN2CCCC2)cc1` [Example 272, 3-{[4-(2-Pyrrolidin-1-yl-ethoxy)-phenylamino]-methylene}-1,3-dihydro-indol-2-one] gave a pIC50 of 6.34.

`O=C1Nc2cc(F)ccc2C1=CNc1ccc(CCN2CCCCC2)cc1` [Example 289, 6-Fluoro-3-{[4-(2-piperidin-1-yl-ethyl)-phenylamino]-methylene}-1,3-dihydro-indol-2-one] gave a pIC50 of 6.59.

The test system of a further test is VEGF induced increases in intracellular calcium levels in HUVEC (human umbilical vein endothelial cells). The test can be described thus: VEGF Stimulated Ca++ Signal in vitro (FLIPR). Format: cell-based. The conditions noted are these: 0.01 to 10.0 μM, VEGF 5 ng/mL. A digest of the protocol: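 HUVEC loaded with Fluo-4 (45 min, 37° C.), washed, then pre-incubated 30 min with compound (10 μM single dose or 0.01–10.0 μM; 0.1% DMSO) before 5 ng/mL VEGF. Fluorescence at 516 nm read by FLIPR; IC50 from % inhibition of max-min VEGF response.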
Turning to `O=C1Nc2ccccc2C1=CNc1ccc2[nH]ccc2c1` [Example 31, 3-[(5-Indolylamino)-methylene]-1,3-dihydro-indol-2-one], the pIC50 was 6.14.

Staying with this test, now noted: Homo sapiens, 10 μM, VEGF 5 ng/mL.
`O=C1Nc2ccccc2C1=CNc1ccc2[nH]ccc2c1` [Example 31, 3-[(5-Indolylamino)-methylene]-1,3-dihydro-indol-2-one]: the inhibition at 10 µM worked out at 98.6%.

The test is the same for the next values; noted with them: Homo sapiens, 0.01 to 10.0 μM, VEGF 5 ng/mL.
Take `O=C1Nc2ccccc2C1=CNc1ccc2[nH]ccc2c1` [Example 31, 3-[(5-Indolylamino)-methylene]-1,3-dihydro-indol-2-one]: the pIC50 was no less than 6.00.

In general, pIC50 refers to the IC50 on a negative log10 scale, so that one unit is a factor of ten. For orientation: inhibition means the percentage by which the read-out fell short of the control.

These data come from patent publication US20030225152A1, “3-(Arylamino)methylene-1, 3-dihydro-2h-indol-2-ones as kinase inhibitors” (priority 2001, published 2003).
